System: axonal mitochondrial transport in DRG neurons
Experiment: FRAP of Mito-GFP in distal axons of DRG neurons
Format: cell-based, rat
Procedure: MAG or Aggrecan exposures were performed as bath application or on coated substrates. For bath application, dissociated DRGs were cultured for 48 h and treated with 25 μg/ml of MAG-Fc (R&D Systems; 538-MG), 25 μg/ml Fc control (R&D Systems; 110-HG), or 10 μg/ml of Aggrecan (Sigma-Aldrich; A1960) for 4 h. Cultures were pretreated with either Ca^2+ chelator BAPTA-AM (3 μM; Sigma-Aldrich; A1076), ROCK inhibitor Y27632 (10 μM; Sigma-Aldrich; SCM075), HDAC6 inhibitor TubA (10 μM; R&D Systems; 6270), Thapsigargin (1 μM; Sigma-Aldrich; T9033), Rho Activator II (1 μg/ml; Cytoskeleton; CNO3), or equivalent volume DMSO 30 min before MAG-Fc, Aggrecan, or controls. For substrate-bound experiments, adult DRGs were cultured on glass bottom dishes (Greiner) that were coated with 25 μg/ml Aggrecan in addition to the laminin/poly-D-lysine substrate.
Mito-KR- and Mito-GFP-expressing DRG neurons were used for FRAP analyses at 48-72 h after transfection. To evaluate mitochondrial motility in Mito-KR-expressing neurons, Mito-KR signals were photobleached using continual exposure to an argon laser set at 594 nm for 30 s (100% laser power) The bleached ROI was then monitored for recovery using an argon laser set at 580 nm every 10 s over 16 min (13% laser power). For FRAP analyses with Mito-GFP, GFP signals were photobleached in a 50 μm ROI using an argon laser set at 488 nm every 10 s for 16 min (70% laser power). The same excitation was used for post-bleach imaging to assess recovery every 10 s for 16 min. For axon shaft FRAP experiments in Mito-GFP-expressing neurons, ROIs of ˜50 μm in length (without branches) were imaged >100 μm proximal to the growth cone. Prebleach, bleach, and post-bleach sequences were the same as for Mito-GFP above. In all cases, neurons were imaged over 40 s or more to acquire baseline Mito-KR or Mito-GFP signals before photobleaching using an argon laser (580 nm at 13% power for Mito-KR and 488 nm at 31% power for Mito-GFP).
Vesicle trafficking was quantified using differential ImageJ Difference Tracker Plug-in (Andrews et al., 2010). 50-80-μm long unbranched axon segments at approximately the mid-region between growth cone and cell body were analyzed. Kymographs were generated using ImageJ Kymograph Plug-in. For analyses of axon retraction in the CALI experiment, the distance from the distal tip of the growth cone in the pre-CALI image sequence was used as the baseline (t=1 min). The distance between the growth tip at end of the post-CALI sequence and the pre-CALI baseline was measured using LAS-X software. Movement of ≥0.5 μm toward the axon shaft was counted as retracted. Fluorescence emission of the Mito-KR post-CALI was analyzed using ImageJ. For normalizing intensities across FRAP image sets, fluorescence intensity at each time point was scaled using the LAS-X FRAP module so that the residual fluorescence signal at t=0 min (post-bleach) was set at 0 and the prebleach intensity was set at 100% for each bleached ROI. For axon shaft FRAP analyses, each 50-μm bleached ROI was divided into […], and the fluorescence intensity recovery was measured as described above. EMs at 1,900× and 4,800× magnification across the crosssectional surface of each sciatic nerve were used for in vivo analyses of mitochondrial content. A minimum of 75 unmyelinated axons was analyzed for each nerve. All unmyelinated axons from each analyzed image were included for quantitative studies. The total number of mitochondria was determined in each unmyelinated axon in the field and was divided by the total number of unmyelinated axons for all subjects. […] was determined by changes in JC-1 fluorescence. JC-1 exists either as a green fluorescent monomer at depolarized membrane potentials or as an orange-red fluorescent aggregate at hyperpolarized membrane potentials. […]

| SMILES | Mito-GFP recovery for thapsigargin-treated cultures, Myc-Miro1K105Q-expressing neurons (1 μM thapsigargin + 10 μM TubA) | Mito-GFP recovery for thapsigargin-treated cultures, Myc-Miro1K629Q-expressing neurons (1 μM thapsigargin + 10 μM TubA) | Mito-GFP recovery in DRGs transfected with WT, K40Q or K40A α-tubulin (10 μM TubA vs DMSO, 960 s after bleach) | mitochondrial transport with combined 10 μM TubA, 3 μM BAPTA-AM and ROCK inhibitor vs each alone (MAG-Fc, Mito-GFP FRAP) | effect on Rho activator-dependent decrease in mitochondrial transport (Rho-Activator + 10 μM TubA) | effect on aggrecan-dependent decrease in Mito-GFP recovery (aggrecan 10 μg/ml, TubA 10 μM or Y27632 10 μM) | effect on MAG-Fc-dependent decrease in Mito-GFP recovery / mitochondrial transport (pretreatment: TubA 10 μM, Y27632 10 μM or BAPTA-AM 3 μM, 960 s after bleach) | effect on thapsigargin-dependent decrease in mitochondrial transport (thapsigargin + 10 μM TubA) | mitochondrial transport in DRG axons (Mito-GFP FRAP) (1 μM thapsigargin) |
| --- | --- | --- | --- | --- | --- | --- | --- | --- | --- |
| CN1CCc2c(c3ccccc3n2Cc2ccc(C(=O)NO)cc2)C1 [TubA, tubastatin] | only a modest response to TubA treatment | significantly increased by TubA treatment | significantly increases Mito-GFP recovery in all three conditions | did not increase mitochondrial transport above the results seen | prevented by treatment with TubA | prevented by treatment with TubA | prevented by TubA pretreatment | prevented by inhibition of HDAC6 | – |
| C/C=C(/C)C(=O)O[C@H]1C(C)=C2[C@H]([C@@H]1OC(=O)CCCCCCC)[C@@](C)(OC(C)=O)C[C@H](OC(=O)CCC)[C@@]1(O)[C@H]2OC(=O)[C@@]1(C)O [thapsigargin] | – | – | – | – | – | – | – | – | similarly decreased mitochondrial transport |
